Structures can show the parent of a compound that is named as a salt.
What was measured:
human mGluR3 (hmGluR3) = target: T1, human mGluR3 (hmGluR3) (Homo sapiens, UniProt Q14832); assay: Human mGluR3 positive allosteric modulator evaluation using Ca++ functional assay; assay type: cell-based; details: hmGluR3 transiently over-expressed in HEK-293 cells; stimulated by EC50 glutamate concentration; intracellular Ca2+ (Fluo4AM, FLIPR Tetra)
T1 construct: expressed in transfected cells; host or cells: HEK-293 cells, transient co-transfection by electroporation
T1 sequence (Q14832 23-879): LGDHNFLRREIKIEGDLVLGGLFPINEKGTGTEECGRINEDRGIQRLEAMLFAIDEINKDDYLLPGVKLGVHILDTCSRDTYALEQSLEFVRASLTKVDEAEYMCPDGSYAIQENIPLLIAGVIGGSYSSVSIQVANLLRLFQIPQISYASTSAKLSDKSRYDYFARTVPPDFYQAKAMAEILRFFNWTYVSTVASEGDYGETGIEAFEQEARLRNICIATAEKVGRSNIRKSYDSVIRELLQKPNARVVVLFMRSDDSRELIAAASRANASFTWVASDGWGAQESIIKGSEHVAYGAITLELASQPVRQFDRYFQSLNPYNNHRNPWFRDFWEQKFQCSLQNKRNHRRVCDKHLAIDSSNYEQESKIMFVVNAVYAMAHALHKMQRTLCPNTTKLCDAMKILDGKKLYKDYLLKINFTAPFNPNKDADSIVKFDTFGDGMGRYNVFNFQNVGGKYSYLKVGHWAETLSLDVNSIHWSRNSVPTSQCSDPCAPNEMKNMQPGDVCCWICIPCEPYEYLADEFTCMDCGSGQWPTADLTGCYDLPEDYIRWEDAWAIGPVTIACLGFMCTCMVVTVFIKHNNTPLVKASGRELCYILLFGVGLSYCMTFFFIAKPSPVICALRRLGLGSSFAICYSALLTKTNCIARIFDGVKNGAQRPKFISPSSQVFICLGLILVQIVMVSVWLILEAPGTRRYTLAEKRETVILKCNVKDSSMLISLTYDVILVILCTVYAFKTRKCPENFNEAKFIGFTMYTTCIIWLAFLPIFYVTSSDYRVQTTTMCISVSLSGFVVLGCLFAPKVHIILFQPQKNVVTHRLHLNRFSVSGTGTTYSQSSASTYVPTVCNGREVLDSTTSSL
How it was run: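 HEK-293 cells transiently co-expressing hmGluR3, a chimeric G protein and two glutamate transporters; Fluo4 calcium read on FLIPR. Compound alone for 10 min (agonist), then EC50 glutamate for 3 min (PAM); 20-point curves gave EC50, duplicate, two independent runs.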

## Cc1ncccc1-c1ccc2c(c1)-n1cc(-c3nnco3)cc1C(=O)N(C)C21CC1 [Example 185]
Human mGluR3 (hmGluR3)
  EC50: < 100 nM
other
  melting point: > 250 °C

## CN1C(=O)c2cc(-c3ccccc3)nn2-c2ccccc2C12CC2 [Example 138, 5-Methyl-2-phenyl-spiro[benzo[f]pyrazolo[1,5-a][1,4]diazepine-6,1′-cyclopropan]-4(5H)-one]
Human mGluR3 (hmGluR3)
  EC50: > 1000 nM
other
  melting point: 212 to 218 °C

## CN1C(=O)c2cc(-c3ccccc3)nn2-c2cc(-c3cn[nH]c3)ccc2C12CC2 [Example 134, 9-(1H-pyrazol-4-yl)-5-methyl-2-phenyl-spiro[benzo[f]pyrazolo[1,5-a][1,4]diazepine-6,1′-cyclopropan]-4(5H)-one]
Human mGluR3 (hmGluR3)
  EC50: 100 to 1000 nM
other
  melting point: 199 to 208 °C

## CN1C(=O)c2cc(-c3ccccc3)cn2-c2cc(-c3cccc(S(=O)(=O)N(C)C)c3)ccc2C12CC2 [Example 141, N,N-dimethyl-3-(5-methyl-4-oxo-2-phenyl-4,5-dihydrospiro[benzo[f]pyrrolo[1,2-a][1,4]diazepine-6,1′-cyclopropan]-9-yl)benzenesulfonamide]
Human mGluR3 (hmGluR3)
  EC50: 100 to 1000 nM
other
  melting point: 198 to 205 °C

## CN1C(=O)c2cccn2-c2cc(CCC#N)ccc2C12CC2 [Example 53, 5-Methyl-9-propionitrile-spiro[benzo[f]pyrrolo[1,2-a][1,4]diazepine-6,1′-cyclopropan]-4(5H)-one]
Human mGluR3 (hmGluR3)
  EC50: > 1000 nM
other
  melting point: 59 to 64 °C

## CN1C(=O)c2cc(-c3ccccc3)nn2-c2cc(-c3cccc(C#N)c3)ccc2C12CC2 [Example 129, 9-(3-Cyano-phenyl)-5-methyl-2-phenyl-spiro[benzo[f]pyrazolo[1,5-a][1,4]diazepine-6,1′-cyclopropan]-4(5H)-one]
Human mGluR3 (hmGluR3)
  EC50: 100 to 1000 nM
other
  melting point: 185 to 190 °C

## CN1C(=O)c2cccn2-c2c(C#N)cccc2C12CC2 [Example 91, 10-Cyano-5-methyl-spiro[benzo[f]pyrrolo[1,2-a][1,4]diazepine-6,1′-cyclopropan]-4(5H)-one]
Human mGluR3 (hmGluR3)
  EC50: > 1000 nM
other
  melting point: 250 °C

## [2H]C([2H])([2H])N1C(=O)c2cc(-c3nnco3)cn2-c2cc(-c3ccc(F)nc3)ccc2C12CC2 [Example 188]
Human mGluR3 (hmGluR3)
  EC50: < 100 nM
other
  melting point: > 250 °C

## COc1ncccc1-c1ccc2c(c1)-n1cc(-c3ccccc3)cc1C(=O)N(C)C21CC1 [Example 116, 5-Methyl-2-phenyl-9-(2-methoxy-pyridin-3-yl)-spiro[benzo[f]pyrrolo[1,2-a][1,4]diazepine-6,1′-cyclopropan]-4(5H)-one]
Human mGluR3 (hmGluR3)
  EC50: 100 to 1000 nM
other
  melting point: 183 to 186 °C

## COc1ccc(-c2ccc3c(c2)-n2nc(-c4ccccc4)cc2C(=O)N(C)C32CC2)cc1 [Example 128, 9-(4-Methoxy-phenyl)-5-methyl-2-phenyl-spiro[benzo[f]pyrazolo[1,5-a][1,4]diazepine-6,1′-cyclopropan]-4(5H)-one]
Human mGluR3 (hmGluR3)
  EC50: 100 to 1000 nM
other
  melting point: > 250 °C

## CN1C(=O)c2cc(-c3ccccc3)cn2-c2cc(-c3ccc(F)nc3)ccc2C12CC2 [Example 106, 5-Methyl-2-phenyl-9-(6-fluoro-pyridin-3-yl)-spiro[benzo[f]pyrrolo[1,2-a][1,4]diazepine-6,1′-cyclopropan]-4(5H)-one]
Human mGluR3 (hmGluR3)
  EC50: < 100 nM
other
  melting point: 177 to 184 °C

## Cc1cc(-c2ccc3c(c2)-n2nc(-c4ccccc4)cc2C(=O)N(C)C32CC2)cc(C)n1 (as salt: hydrochloride) [Example 121, 9-(2,6-Dimethyl-pyridin-4-yl)-5-methyl-2-phenyl-spiro[benzo[f]pyrazolo[1,5-a][1,4]diazepine-6,1′-cyclopropan]-4(5H)-one]
other
  melting point: > 250 °C

## Cc1ncccc1-c1ccc2c(c1)-n1cc(-c3cc[nH]n3)cc1C(=O)N(C)C21CC1 (as salt: hydrochloride) [Example 146]
other
  melting point: 240 to 250 °C

## Cc1ncccc1-c1ccc2c(c1)-n1nccc1C(=O)N(C)C2 (as salt: hydrochloride) [Example 217, 5-Methyl-9-(2-methylpyridin-3-yl)-5,6-dihydro-4H-benzo[f]pyrazolo[1,5-a][1,4]diazepin-4-one]
other
  melting point: 120 to 140 °C

## Cc1ncccc1-c1ccc2c(c1)-n1nc(-c3ccccc3)cc1C(=O)N(C)C21CC1 (as salt: hydrochloride) [Example 125, 9-(2-Methyl-pyridin-3-yl)-5-methyl-2-phenyl-spiro[benzo[f]pyrazolo[1,5-a][1,4]diazepine-6,1′-cyclopropan]-4(5H)-one]
other
  melting point: 185 to 206 °C

## Cc1ncccc1-c1ccc2c(c1)-n1cncc1C(=O)N(C)C2 (as salt: hydrochloride) [Example 215, 5-Methyl-9-(2-methylpyridin-3-yl)-5,6-dihydro-4H-benzo[f]imidazo[1,5-a][1,4]diazepin-4-one]
other
  melting point: 158 to 170 °C

## Cc1nccnc1-c1ccc2c(c1)-n1cccc1C(=O)N(C)C21CC1 (as salt: hydrochloride) [Example 58, 5-Methyl-9-(3-methyl-pyrazin-2-yl)-5,6-spiro[benzo[f]pyrrolo[1,2-a][1,4]diazepine-6,1′-cyclopropan]-4(5H)-one]
other
  melting point: 123 to 129 °C

## CCN1Cc2ccc(-c3cccnc3C)cc2-n2cc(-c3ccccc3)nc2C1=O (as salt: hydrochloride) [Example 167, 5-Ethyl-9-(2-methylpyridin-3-yl)-2-phenyl-5,6-dihydro-4H-benzo[f]imidazo[1,2-a][1,4]diazepin-4-one]
other
  melting point: 200 to 220 °C

## [2H]C([2H])([2H])N1C(=O)c2cc(C(=O)O)cn2-c2cc(-c3ccc(F)nc3)ccc2C12CC2 [Example 178, 5-(Methyl-d3)-9-(6-fluoro-pyridin-3-yl)-4-oxo-4,5-dihydrospiro[benzo[f]pyrrolo[1,2-a][1,4]diazepine-6,1′-cyclopropane]-2-carboxylic acid]
other
  melting point: > 250 °C

## CN1C(=O)c2cccn2-c2cc(C3=CCNCC3)ccc2C12CC2 (as salt: hydrochloride) [Example 46, 5-Methyl-9-(1,2,3,6-tetrahydro-pyridin-4-yl)-spiro[benzo[f]pyrrolo[1,2-a][1,4]diazepine-6,1′-cyclopropan]-4(5H)-one]
other
  melting point: 208 to 215 °C

## CCc1ncccc1-c1ccc2c(c1)-n1cc(-c3ccnn3C)cc1C(=O)N(C)C21CC1 (as salt: hydrochloride) [Example 163]
other
  melting point: 187 to 192 °C

## Cc1ccnc(C)c1-c1ccc2c(c1)-n1cccc1C(=O)N(C)C21CC1 (as salt: hydrochloride) [Example 65, 5-Methyl-9-(2,4-dimethylpyridin-3-yl)-spiro[benzo[f]pyrrolo[1,2-a][1,4]diazepine-6,1′-cyclopropan]-4(5H)-one]
other
  melting point: 200 to 208 °C

## CN1C(=O)c2cccn2-c2cc(-c3cccnc3C3CC3)ccc2C12CC2 (as salt: hydrochloride) [Example 62, 5-Methyl-9-(2-cyclopropylpyridin-3-yl)-spiro[benzo[f]pyrrolo[1,2-a][1,4]diazepine-6,1′-cyclopropan]-4(5H)-one]
other
  melting point: 160 to 180 °C

## CNc1ccc(-c2ccc3c(c2)-n2cc(-c4ccccc4)cc2C(=O)N(C)C32CC2)cn1 (as salt: hydrochloride) [Example 118, 5-Methyl-2-phenyl-9-(6-methylamino-pyridin-3-yl)-spiro[benzo[f]pyrrolo[1,2-a][1,4]diazepine-6,1′-cyclopropan]-4(5H)-one]
other
  melting point: > 250 °C

Reference: US11008323B2, “Substituted tricyclic 1,4-benzodiazepinone derivatives as allosteric modulators of group II metabotropic glutamate receptors” (Domain Therapeutics, priority 2015, dated 2021)
